{
  "source": "patent US12060577B2",
  "about": "“Compositions for expanding natural killer cells” (CASE WESTERN RESERVE UNIVERSITY, priority 2017, dated 2024)",
  "test_system": "OCI-AML3 target cells",
  "test": "effect of TGF-beta and galunisertib on NK cell cytotoxicity (FIG. 11)",
  "assay_type": "cell-based",
  "conditions": "72 hours, NK cells expanded with K562 mbIL-21, 5:1 NK:target",
  "description": "NK cell cytotoxic function was assessed by measuring the number of live cells identified by calcein-AM (CAM) labeling. Target cells and NK cells were labeled with CAM (BD Pharmingen, San Jose, Calif.) and calcein-violet (CV) (eBioscience from ThermoFisher), respectively for approximately 15 minutes in the dark at room temperature. NK cells were co-incubated with target cells at the indicated ratios for 4 hours in triplicate at 37° C. in a tissue culture incubator with 5% CO2, and the samples were analyzed by flow cytometry (Attune NXT, Invitrogen) in 96 well plates. The CV-positive NK cells were gated out for analysis. Percent lysis was calculated according to the equation below: […]\nReferring to FIG. 11, expanded NK cells (K562 cells expressing mbIL-21) were treated with TGF-beta (5 ng/mL), galunisertib, or a combination thereof for 72 hours. […] That drop can be rescued and reversed by co-administering NK cells with galunisertib (middle and right bars), in which case killing efficacy was improved by about 10%.",
  "data": [
    {"smiles": "Cc1cccc(-c2nn3c(c2-c2ccnc4ccc(C(N)=O)cc24)CCC3)n1", "note": "[galunisertib]", "values": [
      {"measurement": "improvement of killing efficacy", "value": "about 10%"}
    ]}
  ]
}
